Three molecules from US20220264883A1, “IMIDAZOTHIAZOLE COMPOUNDS AND METHODS FOR TREATING PLANT NEMATODE INFECTIONS” (The Governing Council of the University of Toronto, priority 2019, published 2022) can be followed below.

Format in all cases: in vivo
The nature of data set [1]: Danio rerio (zebrafish) embryo dose-response experiments. Particulars: AB/Tubingen, Danio rerio (zebrafish), in vivo, other: immersion in chemical-treated water; non-target system; embryos, 24 hours exposure; read-out: D. rerio LC50. On the procedure: Zebrafish chemical assays were performed similarly to previously described methods^63. In brief, fish were maintained at 28.5° C. on a 14/10 hour light/dark cycle and staged according to hours post fertilization (hpf). For each biological replicate, eggs from LT fish (AB/Tubingen strain) were collected at 4 hpf. At 24 hpf, embryos were arrayed in 24 well plates, 10 per well. In 2 ml tubes, 4 μl of chemical dissolved in DMSO at the appropriate concentration was added to 800 μl of water and then vortexed for 30 s intensively. Water was removed from the embryos in the wells and 800 μl of chemical-treated water was transferred to each of the wells. The DMSO control wells contained DMSO alone. The final DMSO concentration in every well was 0.5% (v/v). […] The embryos were incubated in the chemicals for 24 hours and scored for death and toxicity at 48 hpf. Toxicity was defined as the embryos showing developmental defects such as a curved body, reduced body size, skin whiteness, and heart edema. “Relative viability” was calculated by dividing the number of viable and properly developed embryos in the treatment wells by the average number of viable and properly developed embryos across six DMSO control wells. Three biological replicates were performed for each dose-response experiment, and the relative viability values were averaged across the three replicates.

A further data set relates to M. chitwoodi J2 larvae. The data set can be described thus: Meloidogyne chitwoodi in vitro assays (J2 movement). Particulars: 45 μM, 2 days, relative to DMSO control. The procedure: M. incognita (Kofoid & White) Chitwood Race 1 (originally isolated in Maryland) was used for all experiments, and was maintained on pepper (Capsicum annuum L.) cv. PA-136 in a greenhouse as previously described^64. Infective J2 juveniles were collected as described in ref.65. The microwell dose-response experiments were carried out similarly to previously described protocols^64, 66. In brief, 100 J2s, in 10 μL of deionized water, were added to the wells of 96-well polystyrene plates, after which 190 μL of deionized water containing dissolved chemical, or DMSO alone, was added to each well. The chemicals were tested at 45 μM, and the final concentration of DMSO in each well was 0.5% (v/v). The wells were covered with a plastic adhesive strip, and the lids of the plates were sealed with parafilm. The plates were incubated at 25° C. The mobile fraction of worms was quantified by counting the number of mobile and immobile worms after 2 days of incubation, and then dividing the number of mobile worms by the total number of worms in the well. Three technical replicates were performed for each treatment, and an average value for the mobile fraction of worms was calculated across the three replicates. The percent effectiveness at inhibiting nematode movement was calculated by dividing the average value for the chemical treatment by the average value for the DMSO control, then subtracting this value from 1, and then multiplying by 100.
M. chitwoodi race 1 (the strain commonly found in the pacific northwest of the United States) was used for all experiments, and was maintained on tomato plants (Solanum lycopersicum ‘Rutgers’) as previously described^73. The M. chitwoodi in vitro assays were performed identically to the M. incognita in vitro assays (see above).

Data set [2] has as its system Haemonchus contortus eggs. The data set can be described thus: Haemonchus contortus egg hatching assay. The following applies: for Hatch Rate: 60 μM, 48 hours, ± standard deviation; for reduction of egg hatching relative to the untreated mock control: 60 micromolar, 48-hour treatment. On the procedure: Fresh sheep faeces containing eggs of the MHco3(ISE) strain of H. contortus was supplied by Dr. Doug Colwell and Dawn Gray (Lethbridge Research Station, Agriculture and Agri-Food Canada). Experimental infections used to generate this material were carried out using established methods^72, and were approved by the Lethbridge AAFC Animal Care committee and conducted under animal use license ACC1407. Sheep faeces containing H. contortus eggs were stored at 20° C. for no longer than 48 h before harvesting eggs for use. Eggs were isolated from faeces using a standard saturated salt flotation method^61 immediately before each egg hatch assay. Approximately 100 eggs suspended in 100 μl of water were added to each well of a 96-well plate, and the exemplary compounds of the application were tested at 60 μM, 0.6% DMSO (v/v). Egg hatch rates were determined 48 hours after the initial set-up of the assay by the addition of iodine tincture to stop development. Example 13: Arabidopsis thaliana greening experiments

Broadly, the LC50 is the concentration that kills 50% of the test population. Regarding `Cc1csc2nc(-c3ccccc3)cn12` [Compound Ie], the LC50 at 24 h in data set [1] was more than 100 µM. Further, the “% effectiveness at reducing M. chitwoodi movement” value in the data set on M. chitwoodi J2 larvae came out at 24.3%.

As for `Clc1ccc(-c2cn3ccsc3n2)cc1` [Ia], the LC50 at 24 h in data set [1] is more than 100 µM. Further, in data set [2], the “Hatch Rate” value amounted to 1.0 ± 1.7% and the “reduction of egg hatching relative to the untreated mock control” value was 99%.

On to `Fc1ccc(-c2cn3ccsc3n2)cc1` [Ib], for which, in data set [1], the LC50 at 24 h was more than 100 µM. In the data set on M. chitwoodi J2 larvae, the “% effectiveness at reducing M. chitwoodi movement” value worked out at 37.5%. For the same molecule, in data set [2], the “Hatch Rate” value turned out to be 0.0 ± 0.0% and the “reduction of egg hatching relative to the untreated mock control” value is given as “completely inhibited egg hatching”.
